# Experimental data: patent US9381243B2, “Methods of identifying critically ill patients at increased risk of development of organ failure and compounds for the treatment hereof” (Rigshospitalet, priority 2008, dated 2016)
# Tests used:
# [1] = depends on administration form and/or dosage; cited from earlier work
# [2] = system: critically ill patients admitted to the ICU; assay: Retrospective review of haemofiltration with or without Flolan in the filters; assay type: in vivo, human
# Method: Ninety-four critically ill patients admitted to the intensive care unit (ICU) underwent haemofiltration with or without concomitant Flolan (prostacyclin) treatment. Flolan was administered in a low dose of 4-6 ng/kg/min in the filters to prevent these from clotting and consequently there was only a minor spill over of Flolan to the systemic circulation. The patients were retrospectively reviewed.
# [3] = system: whole blood haemostatic activity; assay: Whole blood viscoelastical assay (TEG) during Flolan infusion; assay type: in vivo, human; settings: 6 healthy volunteers, 4 ng/kg/min IV, after 60 and 120 min infusion
# From the text: The TEG analyzer uses a small whole blood sample in a rotating cup and a pin suspended in the blood by a torsion wire, which is monitored for motion. To speed up the clot formation, a standardized amount of an activator of coagulation (e.g. Kaolin, tissue factor) may be added to the cup just before the pin is placed in the cup. The torque of the rotating cup is transmitted to the immersed pin only after fibrin and/or fibrin-platelet bonding has linked the cup and pin together. The strength and rate of these bonds affect the magnitude of the pin motion such that strong clots move the pin directly in phase with cup motion. Thus, the TEG technology documents the interaction of platelets with the protein coagulation cascade from the time of placing the blood in the analyzer until initial fibrin formation, clot rate strengthening and fibrin-platelet bonding via GPIIb/IIIa, through eventual clot lysis. […]
# With regard to the TEG assay this was performed as recommended by the manufacturer and 340 μl are mixed with 20 μl CaCl 0.2 M (final concentration 11.1 mM in the cup) and kaolin at 37° C. after which the haemostatic activity is recorded as depicted in FIG. 1.
# [4] = system: platelet aggregation in whole blood; assay: Whole blood platelet aggregation (Multiplate) during Flolan infusion; assay type: in vivo, human; settings: 6 healthy volunteers, 4 ng/kg/min IV, after 60 and 120 min infusion
# Method: Six healthy volunteers were administered flolan (prostacyclin) intravenously at a dose of 4 ng/kg/min for 2 h. Blood samples for whole blood viscoelastical assay (Thrombelastography [TEG]) and whole blood platelet aggregation (Multiplate) was obtained before infusion of Flolan, after 60 min infusion of Flolan and after 120 min infusion of Flolan.
# Whole blood impedance aggregometry analyzed by the Multiple Platelet function Analyzer (MultiPlate® analyzer). Analysis employing various platelet agonists: ASPItest (activation by arachidonic acid), COLtest (activation by collagen through the collagen receptor), TRAPtest (activation by TRAP-6 stimulates the thrombin receptor on the platelet surface and ADPtest (activation by ADP stimulates platelet activation by the ADP receptors).
# MultiPlate continuously records platelet aggregation. The increase of impedance by the attachment of platelets onto the Multiplate sensors is transformed to arbitrary aggregation units (AU) and plotted against time as depicted in FIG. 2.
# [5] = system: patients with severe sepsis; settings: cited from earlier work
# [6] = Flolan 4-6 ng/kg/min in the filters, n = 24
compound,measurement,setting,value
CC#CCC(C)[C@H](O)/C=C/[C@@H]1[C@H]2c3cccc(CCCC(=O)O)c3O[C@H]2C[C@H]1O (mixture of isomers) [Beraprost],half time,[1],35 to 40 min
"CCCCC[C@H](O)/C=C/[C@@H]1[C@H]2C/C(=C/CCCC(=O)O)O[C@H]2C[C@H]1O [Flolan, prostacyclin]",90 day survival (%),[2]; [6],67%
same,Platelet count (difference before vs. after haemofiltration),[2]; [6],+14
same,haemostatic competence as evaluated by transfusion requirements,[2]; critically ill patients undergoing haemofiltration,does not negatively influence
same,mortality at 30 days,"[2]; vs. 39% non-flolan, p=0.12",21%
same,mortality at 90 days,"[2]; vs. 53% non-flolan, p=0.10",34%
same,mortality at 365 days,"[2]; vs. 57% non-flolan, p=0.09",38%
same,"TEG values (R, Angle, MA) vs baseline",[3],No significant difference
same,"Multiplate values (ASPI, COL, ADP, TRAP) vs baseline",[4],no significant difference
same,half time,[1],0.5 to 3 min
CC#CCC(C)[C@H](O)/C=C/[C@@H]1[C@H]2C/C(=C/CCCC(=O)O)C[C@H]2C[C@H]1O (some centres unmarked) [Iloprost],half time,[1],20 to 30 min
CSCCNc1nc(SCCC(F)(F)F)nc2c1ncn2[C@@H]1O[C@H](COP(=O)(O)OP(=O)(O)C(Cl)(Cl)P(=O)(O)O)[C@@H](O)[C@H]1O [cangrelor],half time,[1],3 to 5 min
Tifacogin: recombinant tissue factor pathway inhibitor,All cause mortality,"[5]; 1754 patients, severe sepsis, vs 33.9% placebo, p=0.88",34.2%
same,risk of bleeding,[5]; in vivo,increase in risk of bleeding
